Measured values reported in patent US12178210B2, “Insect attractant and killing system” (priority 2020, dated 2024).
Where two headings read alike, the source gives them in different places.

Conditions: 40° C., 15 g, UV8 membrane, 1.6 mm orifice
Text: All prototype lure devices (i.e., the attractant receptacle and permeable membrane with enclosed volatile insect attractant) were constructed using polypropylene/calcium carbonate film (UV8) for the permeable membrane and Scotchpak™ (3M) polyester laminate film for the impermeable barrier material. Each lure device measured approximately 11.5 cm×5.5 cm with a 1.6 mm ( 1/16 in) diameter spherical punch in the impermeable layer exposing the membrane and an ˜8 mm ( 5/16 in) diameter heat seal around the circumference of the punch (referred to as a ring seal). […] Prior to being deployed the lures were weighed on an analytical balance (Sartorius, Universal; resolution of 0.01 g). Prototype lures were attached to a cord that ran the length of ventilated laboratory fume hood, with 5-8 cm (2-3 in) separating each lure in an open, ventilated room at the indicated temperature (18-20° C. or 39-41° C.). Every 2-3 days the lures were removed from the cord and weighed on the same scale. Lure weight was recorded and the weight loss (g/day) was calculated. In addition to prototype lures, two controls were included in the study consisting of a current Suterra lure product (WHF lure) and a competitor product (Comp. Prod. 1).

N.NC(=O)O [CM-NR, Ammonium carbamate]
Attractant Release Rate (5-day average per time point) (day 5): 338.4 mg/day | Attractant Release Rate (5-day average per time point) (day 10): 346.8 mg/day | Attractant Release Rate (5-day average per time point) (day 15): 370.0 mg/day | Attractant Release Rate (5-day average per time point) (day 20): 413.7 mg/day | Attractant Release Rate (5-day average per time point) (day 25): 440.0 mg/day | Attractant Release Rate (5-day average per time point) (day 30): 429.7 mg/day | Attractant Release Rate (5-day average per time point) (day 35): 408.5 mg/day | Attractant Release Rate (5-day average per time point) (day 40): 193.2 mg/day | Attractant Release Rate (5-day average per time point) (day 45): 0.0 mg/day | Attractant Release Rate (5-day average per time point) (day 49): 0.0 mg/day | Attractant Release Rate (5-day average per time point) (day 55): 0.0 mg/day
